Assays:
sedge, umbrella = test: Test C flooded paddy test; format: in vivo, Cyperus difformis; conditions: Flood, scale of 0 to 100 where 0 is no effect and 100 is complete control, 13 to 15 days
Method in brief: (§1)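 Plants at the 2-leaf stage in pots flooded to 3 cm were treated by applying compound directly to the paddy water, with depth held throughout. After 13 to 15 days in a greenhouse, response was rated visually against controls on a 0 (no effect) to 100 (complete control) scale.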

galium = test: Test A postemergence herbicide test; format: in vivo, Galium aparine; conditions: for Plant response rating, Galium: 125 g ai/ha, 0 to 100 scale, 0 is no effect, 100 is complete control; for Galium plant response rating (0 to 100 scale, 0 is no effect, 100 is complete control): 500 g ai/ha
Method in brief: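 Injury was rated visually about 10 days after treatment on a 0 (no effect) to 100 (complete control) scale, compared with untreated plants. Test chemicals were sprayed postemergence onto greenhouse plants 2–10 cm high at one to two leaves, grown in a loam–sand blend.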

ducksalad = test: Test C flooded paddy test; format: in vivo, Heteranthera limosa; conditions: Flood, scale of 0 to 100 where 0 is no effect and 100 is complete control, 13 to 15 days
Method in brief: as §1

ryegrass, Italian = test: Test A pre-/postemergence herbicide test; format: in vivo, Lolium multiflorum; conditions: for Plant response rating, Ryegrass, Italian: 0 to 100 scale
Method in brief: (§2)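 Visual injury ratings, 0 = no effect, 100 = complete control, taken ~10 days after treatment against untreated greenhouse controls. Preemergence: directed soil spray onto seeded loam/sand pots. Postemergence: spray onto plants at one- to two-leaf stage, 2–10 cm tall.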

chickweed = test: Test C postemergence herbicide test; format: in vivo, Stellaria media
Method in brief: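 Greenhouse pot plants at 2 to 18 cm height (1- to 4-leaf stage) received a postemergence application of formulated test chemical. Visual ratings against untreated controls were made after 13 to 15 days, on a 0 (no effect) to 100 (complete control) scale.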

kochia = test: Test A pre-/postemergence herbicide test; format: in vivo, Kochia scoparia; conditions: for Plant response rating, Kochia: 0 to 100 scale
Method in brief: as §2

ragweed = test: Test A pre-/postemergence herbicide test; format: in vivo, Ambrosia elatior; conditions: for Plant response rating, Ragweed: 0 to 100 scale
Method in brief: as §2

[1] = 125 g ai/ha, visual rating, 0 no effect, 100 complete control, approximately 10 days, preemergence
[2] = Postemergence, 125 g ai/ha, 0 is no effect, 100 is complete control
[3] = preemergence, 500 g ai/ha, 0 is no effect and 100 is complete control
[4] = 31 g ai/ha, scale 0 to 100 (0 no effect, 100 complete control)
[5] = 62 g ai/ha, scale 0 (no effect) to 100 (complete control)
[6] = 125 g ai/ha, scale 0 to 100 (0 no effect, 100 complete control)
[7] = 250 g ai/ha, scale 0 to 100 (0 no effect, 100 complete control)

Structure (SMILES)	Plant response rating, Sedge, Umbrella (sedge, umbrella; 31 g ai/ha)	Plant response rating, Sedge, Umbrella (sedge, umbrella; 62 g ai/ha)	Plant response rating, Sedge, Umbrella (sedge, umbrella; 125 g ai/ha)	Plant response rating, Sedge, Umbrella (sedge, umbrella; 250 g ai/ha)	Plant response rating, Galium (galium)	Galium plant response rating (0 to 100 scale, 0 is no effect, 100 is complete control) (galium)	Plant response rating, Ducksalad (ducksalad; 31 g ai/ha)	Plant response rating, Ducksalad (ducksalad; 62 g ai/ha)	Plant response rating, Ducksalad (ducksalad; 125 g ai/ha)	Plant response rating, Ducksalad (ducksalad; 250 g ai/ha)	Plant response rating, Ryegrass, Italian (ryegrass, Italian; [1])	Plant response rating, Ryegrass, Italian (ryegrass, Italian; [2])	Ryegrass, Italian plant response rating (0 to 100 scale, 0 is no effect, 100 is complete control) (ryegrass, Italian; Postemergence, 500 g ai/ha)	Plant response rating, Ryegrass, Italian (ryegrass, Italian; [3])	Plant response rating, Chickweed (chickweed; [4])	Plant response rating, Chickweed (chickweed; [5])	Plant response rating, Chickweed (chickweed; [6])	Plant response rating, Chickweed (chickweed; [7])	Plant response rating, Kochia (kochia; [1])	Plant response rating, Kochia (kochia; [2])	also measured
O=C1NCC(c2cccc(OC(F)F)c2)C1C(=O)Nc1ccccc1F (stereo not shown) [Compound 223]	0	0	0	0	50	60	30	50	65	95	30	0	40	60	40	45	50	80	30	50	Kochia plant response rating (0 to 100 scale, 0 is no effect, 100 is complete control) (kochia; Postemergence, 500 g ai/ha): 70; Plant response rating, Kochia (kochia; [3]): 80; Plant response rating, Ragweed (ragweed; [1]): 30; Plant response rating, Ragweed (ragweed; [2]): 0; Ragweed plant response rating (0 to 100 scale, 0 is no effect, 100 is complete control) (ragweed; Postemergence, 500 g ai/ha): 30; Plant response rating, Ragweed (ragweed; [3]): 50
O=C1NCC(c2ccc(C(F)(F)F)cc2)C1C(=O)Nc1ccc(F)c(F)c1F (stereo not shown) [Compound 232]	0	0	0	0	60	60	50	75	75	95	40	40	50	80	70	85	85	85	70	80	Kochia plant response rating (0 to 100 scale, 0 is no effect, 100 is complete control) (kochia; Postemergence, 500 g ai/ha): 90; Plant response rating, Kochia (kochia; [3]): 80; Plant response rating, Ragweed (ragweed; [1]): 30; Plant response rating, Ragweed (ragweed; [2]): 20; Ragweed plant response rating (0 to 100 scale, 0 is no effect, 100 is complete control) (ragweed; Postemergence, 500 g ai/ha): 50; Plant response rating, Ragweed (ragweed; [3]): 90

Source: US10294202B2, “Pyrrolidinones as herbicides” (FMC Corporation, priority 2013, dated 2019)
